{"source": "paper PMC4305287", "about": "“Two Novel α7 Nicotinic Acetylcholine Receptor Ligands: In Vitro Properties and Their Efficacy in Collagen-Induced Arthritis in Mice” (PLoS ONE, 2015)", "key": {"[1]": {"system": "collagen-induced arthritis", "parameters": "method as in PMID 19116908", "conditions": "cited from earlier work"}, "[2]": {"system": "T1, human α7 nAChR primed with PNU-120596", "T1 construct": "expressed in transfected cells; host or cells: Xenopus laevis oocytes injected with cRNA; clones from Dr. Jon Lindstrom (α7) and Dr. Millet Treinin (RIC-3)", "test": "electrophysiology of oocytes primed with PNU-120596", "type": "biochemical", "protocol": "Each oocyte received two initial control applications of 300 μM ACh, followed by the experimental drug application, and subsequent control application of 300 μM ACh, unless otherwise indicated. Responses to experimental drug applications were determined relative to the preceding ACh control responses in order to normalize the data, compensating for the varying levels of channel expression among the oocytes. Responses for α7 nAChR were calculated as net charge, since peak currents inaccurately report the agonist concentration dependence of α7 nAChR-mediated responses. […] Imax, n, and the EC50 were all unconstrained for the fitting procedures except in the case of the ACh concentration-response curves."}, "microglia": {"system": "microglia", "parameters": "method as in PMID 22884467", "conditions": "cited from earlier work"}, "memory retention": {"system": "memory retention", "parameters": "method as in PMID 19845675", "conditions": "cited from earlier work"}}}
{"smiles": "O=C1NCC2(CN3CCC2CC3)O1", "note": "(centres unmarked) [AR-R17779]", "values": [{"measurement": "effect on arthritis activity in CIA", "setting": "[1]", "value": "ameliorates arthritis activity"}]}
{"smiles": "CCN1C[C@]2(COC(=O)c3ccccc3N3C(=O)C[C@H](C)C3=O)CC[C@H](OC)[C@@]34[C@@H]5C[C@H]6[C@H](OC)[C@@H]5[C@](O)(C[C@@H]6OC)[C@@](O)([C@@H](OC)[C@H]23)[C@@H]14", "note": "[MLA, methyllycaconitine]", "values": [{"measurement": "ion channel response of PNU-120596 primed cells", "setting": "[2]; after 60 s priming with 300 μM PNU-120596, PMP-311 1 μM, PMP-072 10 μM, MLA 10 μM", "value": "fail to activate the primed cells"}]}
{"smiles": "O=C(c1ccc(-c2cccc(C(F)(F)F)c2)o1)N1CCN2CCC1CC2", "note": "[NS-6740]", "values": [{"measurement": "LPS-induced TNF release in microglia", "setting": "microglia", "value": "reduce LPS-induced TNF release"}, {"measurement": "memory retention in a cognitive mouse model", "setting": "memory retention", "value": "unable to improve memory retention"}]}
{"smiles": "COc1cc(OC)c(NC(=O)Nc2cc(C)on2)cc1Cl", "note": "[PNU-120596]", "values": [{"measurement": "ion channel current during PNU-120596 application alone", "setting": "[2]; 300 μM for 60 s", "value": "No ion channel current was stimulated"}]}
